# Results as given in patent US20110172171A1, “TAURINE OR TAURINE-LIKE SUBSTANCES FOR THE PREVENTION OF BRAIN OEDEMA” (priority 2008, published 2011).
# Values joined by “and” are separate entries in the source; they are usually repeats but may differ in a detail not shown here. Equal values may be shown once. “Also recorded” adds a separate entry of the source.
# System: white matter adjacent to the cerebellar nuclei, and the nuclei
# Assay: Vigabatrin-induced brain vacuolation in rats, histology of cerebellar sections scored by light microscopy
# Assay type: in vivo, Wistar rats
# Parameters: key to vacuolation score (grade) of cerebellum: 1: No or occasional individual vacuoles in perinuclear white matter.; 2: Mild to moderate regional vacuolation of perinuclear white matter, sometimes extending into nucleus.; 3: Extensive, widespread vacuolation of perinuclear white matter, often with involvement of adjacent nuclear regions. Vacuolation may extend to folial white matter
# Conditions: for vacuolation score (grade) of cerebellum: blinded scoring; for vacuolation in the brain tissue (histological appearance): cerebellar sections
# Procedure: Animal treatments: As described previously (Duboc A. et al. 2004; Izumi Y. et al. 2004), Wistar rats Rj Wi IOPS Han were purchased from Janvier (Le Genest-St-Isle, France) at between six and seven weeks of age. vigabatrin dissolved in 0.9% NaC1 was administered at 40mg (125 mg/ml, 0.32m1) to rats by daily intraperitoneal injection for 65 days. These daily doses (rats: 200mg/kg) are in-line with those described for the treatment of epilepsy (adult patients: […]; children: 50-75mg/kg; or infants: 100-150 mg/kg) (Chiron C. et al. 1997; Lux AL. et al. 2004; Aicardi J. et al. 1996). Taurine supplementation was given in drinking water at a concentration of 0.1M.
# Histology: Rats were anesthetized by intraperitoneal injection (0.8 to 1.2 ml/kg) of a solution containing ketamine (40 mg/ml) and xylazine (4 mg/ml Rompum). Rat heads were removed and an opening created in the calvarium. These were then immersion fixed in 4% buffered formol (T/02170015, MMFrance) and then placed in phosphate buffered saline. Brains were then removed from the skulls and placed in 10% neutral buffered formalin. Brains were trimmed and their cerebellar nuclei placed in 10% buffered formalin and embedded in paraffin. Sections of the cerebellar nuclei were stained with hematoxylin and eosin.
# Vacuolation of cerebellum was assessed by light microscopy, with the region of emphasis being the white matter adjacent to the cerebellar nuclei, and the nuclei. Vacuolation was scored as follows.
# 1- No or occasional individual vacuoles in perinuclear white matter.
# 2- Mild to moderate regional vacuolation of perinuclear white matter, sometimes extending into nucleus.
# 3- Extensive, widespread vacuolation of perinuclear white matter, often with involvement of adjacent nuclear regions. Vacuolation may extend to folial white matter
Compound,"vacuolation score (grade) of cerebellum (vigabatrin-treated rats (200mg/kg daily i.p., 65 days) with taurine 0.1M in drinking water, n=7 (grade 1 n=3, grade 2 n=4), 200 mg/kg)","vacuolation in the brain tissue (histological appearance) (vigabatrin-treated rats supplemented with taurine (0.1M in drinking water), FIG. 1C)","vacuolation score (grade) of cerebellum (rats, vigabatrin 40 mg (200mg/kg) daily intraperitoneal injection for 65 days, n=7)","vacuolation in the brain tissue (histological appearance) (vigabatrin-treated rats, FIG. 1B)"
"NCCS(=O)(=O)O [taurine, 2-aminoethanesulfonic acid]",1 and 2,mild and vacuoles were present in some animals but appeared at a much lower density,,
"C=CC(N)CCC(=O)O (stereo not shown) [vigabatrin, 4-amino-5-hexenoic acid, reference compound]",,,3,extensive; also recorded: a great number of vacuoles
